Test results from ChEMBL document CHEMBL1147737, “4-(3'alpha15'beta-dihydroxy-5'beta-estran-17'beta-yl)furan-2-methyl alcohol: an anti-digoxin agent with a novel mechanism of action” (2006).
Calls of active or inactive are those of the source.

Key:
[1] = test system: Sodium/potassium-transporting ATPase (Cavia porcellus); assay: Binding affinity to CS receptor on K(+)-ATPase; conditions: filed as antagonist
[2] = test system: Sodium/potassium-transporting ATPase (Cavia porcellus); assay: Binding affinity to CS receptor on Na+-ATPase; conditions: filed as antagonist
NT2 = assay: Inhibition of digoxin-induced transferrin accumulation in NT2 cells; assay type: functional, cell-based; conditions: Homo sapiens
Cavia porcellus [3] = organism: Cavia porcellus; assay: Inhibition of 1 uM digoxin-induced increase in the force of contraction in guinea pig papillary muscle at 10 uM; assay type: functional
Cavia porcellus [4] = organism: Cavia porcellus; assay: Inhibition of digoxin-induced arrhythmias in guinea pig papillary muscle; assay type: functional

Measured: Activity

C[C@]12CC[C@H]3[C@@H](CC[C@@H]4C[C@H](O)CC[C@@H]43)[C@@H]1[C@H](O)C[C@@H]2c1coc(CO)c1
active: [1] Antagonist | [2] Antagonist | NT2 | Cavia porcellus [3] | Cavia porcellus [4]
